Data as given in patent publication US20090093423A2, “NOVEL 2-SUBSTITUTED METHYL PENAM DERIVATIVES” (Orchid Chemicals and Pharmaceuticals Limited, priority 2006, published 2009).

Columns and labels:
[1] = Minimum bactericidal studies, broth macrodilution; assay type: cell-based
Protocol: Minimum bactericidal studies were performed by broth macrodilution technique as described by NCCLS.

A. baumani MRO 14515 = assay: MIC, Agar Dilution Method, resistant clinical isolate; assay type: cell-based; settings: Pip + 4 μg/mL inhibitor
Protocol: (§1) The novel compounds were tested for the in vitro antibacterial activities by the Agar Dilution Method as specified in documents published by NCCLS, now CLSI, USA. (National Committee for Clinical Laboratory Standards (NCCLS). 2003. Approved standard M7-A6. NCCLS, Villanova, Pa.).
(§2) Tazo was also dissolved in same buffer to get a solution of, e.g., 1 mg/mL. Novel penam derivatives described herein were dissolved in water to get a solution of, e.g., 1 mg/mL.
(§3) The novel compounds and Tazo were also tested individually. The bacterial inoculum was prepared by picking 3 to 5 well-isolated bacterial colonies with the same morphological appearance from an 18-24 h old culture and adjusting the turbidity of the saline suspension to 0.5 McFarland Turbidity Standard equivalent to a bacterial population of 1.5×10^8 colony forming units (CFU) per mL of suspension. The suspension was diluted 1:10 in saline (i.e. 0.5 mL suspension+4.5 mL saline) to get a bacterial population of 1.5×10^7 CFU/mL as inoculum. […] The inoculated petridishes were incubated at 35° C. in an ambient atmosphere for 16-20 h.

A. baumani MRO 14514 = assay: as above; assay type: cell-based; settings: Pip + 4 μg/mL inhibitor
Protocol: as §1, §2, §3

E. coli MRO 10135 = assay: as above; assay type: cell-based; settings: Pip + 4 μg/mL inhibitor
Protocol: as §1, §2, §3

A. baumani MRO 14512 = assay: as above; assay type: cell-based; settings: Pip + 4 μg/mL inhibitor
Protocol: as §1, §2, §3

K. pneumoniae MRO 11008 [2] = assay: MIC, Agar Dilution Method; assay type: cell-based; settings: ESBL producing K. pneumoniae strain; inhibitor 1 μg/mL
Protocol: as §1, §2, §3

[3] = tested on: K. pneumoniae ATCC 700603; assay: MIC, Agar Dilution Method; assay type: cell-based; settings: K. pneumoniae 700603, SHV-18
Protocol: as §1, §2, §3

E. coli MRO 10007 = assay: In vivo efficacy, infected mice; settings: Swiss albino mice infected with E. coli MRO 10007; Piperacillin:inhibitor 4:1; 7-day survival
Protocol: (§4) The efficacy studies were performed as described earlier (Kuck et al, 1989, Antimicrob. Agents. Chemother. 33(11): 1964-1969). Briefly, Swiss albino mice, 20+2 g, from in-house breeding facility were challenged by the intraperitoneal injection of bacterial suspensions in 0.5 mL of hog gastric mucin (10 to 100 50% lethal doses). […] All the untreated control animals died within 48 h of infection. In each experiment, in-house Tazo was used as an inhibitor control in four doses. Median (50%) effective dose (ED50) were determined by applying the Reed and Muench's method of the 7-day survival ratios.

K. pneumoniae MRO 11008 [4] = assay: In vivo efficacy, infected mice
Protocol: as §4

E. coli MRO 10006 = assay: In vivo efficacy, infected mice; settings: Swiss albino mice infected with E. coli MRO 10006; Piperacillin:inhibitor 4:1; 7-day survival
Protocol: as §4

[5] = tested on: ESBL producing E. coli strains; assay: In vivo efficacy, infected mice
Protocol: as §4

E. coli BAA-201 (TEM-3) = assay: MIC, Agar Dilution Method, ESBL producing ATCC isolate; assay type: cell-based
Protocol: as §1, §2, §3

E. coli BAA-200 (SHV-4) = assay: as above; assay type: cell-based; settings: for potentiation of Piperacillin compared to Tazo: SHV-4 ESBL producing strain
Protocol: as §1, §2, §3

E. coli BAA-199 (SHV-3) = assay: as above; assay type: cell-based
Protocol: as §1, §2, §3

[6] = tested on: P. mirabilis BAA-663 (TEM-89); assay: as above; assay type: cell-based
Protocol: as §1, §2, §3

E. coli BAA-202 (SHV-1) = assay: as above; assay type: cell-based
Protocol: as §1, §2, §3

E. coli BAA-196 (TEM-10) = assay: as above; assay type: cell-based; settings: inhibitor 4 μg/mL
Protocol: as §1, §2, §3

[7] = tested on: K. pneumoniae 51503 (TEM-10 & -12); assay: as above; assay type: cell-based; settings: inhibitor 4 μg/mL
Protocol: as §1, §2, §3

E. coli BAA-197 (TEM-12) = assay: as above; assay type: cell-based; settings: inhibitor 4 μg/mL
Protocol: as §1, §2, §3

E. coli BAA-198 (TEM-26) = assay: as above; assay type: cell-based
Protocol: as §1, §2, §3

Penicillinase enzyme = assay: β-Lactamase assay (Centa substrate); assay type: biochemical; settings: FIG. 1
Protocol: Representative novel compounds were subjected to β-lactamase assay to determine and compare their IC50 with that of Tazo as described elsewhere (Bebrone et. al, 2001, Antimicrob. Agents. Chemother. 45(6): 1868-1871; Jamieson et. al, 2003, Antimicrob. Agents. Chemother. 47(5): 1652-1657). Briefly enzyme inhibition assays with Tazo acid as the standard inhibitor for % inhibitions & IC50 value with optimized concentrations of Penicillinase enzyme & Centa β-lactamase substrate were performed.

[8] = tested on: strains resistant to Ceftazidime, Ciprofloxacin, and Piperacillin/Tazo combination; assay: MIC, Agar Dilution Method, resistant panel; assay type: cell-based
Protocol: as §1, §2, §3

[9] = Intravenous pharmacokinetics in mice; assay type: in vivo, Swiss mice
Source text: Blood samples were collected at different time points. These samples were processed and analyzed by HPLC.

[10] = tested on: strains producing the TEM type ESBLs (TEM-10, TEM-12 and TEM-10 and -12); assay: MIC, Agar Dilution Method, TEM panel; assay type: cell-based; settings: TEM-10, TEM-12 and TEM-10 and -12 strains; inhibitor 1 μg/mL and 2 μg/mL
Protocol: as §1, §2, §3

[11] = Possibility of conversion of Example 1 to Tazo, LC-MS/MS of plasma; assay type: in vivo; settings: Swiss mice, 8 mg/kg along with Piperacillin (32 mg/kg)
Protocol: Blood samples were collected at different time points. These samples were processed and analyzed by LC-MS/MS, which has the capability of simultaneously detecting even the lower concentration of Tazo (20 ng/mL) and the compound obtained from Example 1 (10 ng/mL).

SMILES: C[n+]1ccn(C[C@@]2(C)[C@H](C(=O)[O-])N3C(=O)C[C@H]3S2(=O)=O)n1 [Example 1, 1-{[(2S,3S,5R)-2-Carboxy-3-methyl-4,4,7-trioxo-4-thia-1-azabicyclo[3.2.0]hept-3-yl]methyl}-3-methyl-1H-1,2,3-triazol-3-ium]
- Minimum bactericidal concentration study, Piperacillin in combination with inhibitor [1]: bacteriostatic
- MIC of Piperacillin in combination with 4 μg/mL inhibitor (A. baumani MRO 14515): 32 µg/mL
- MIC of Piperacillin in combination with 4 μg/mL inhibitor (A. baumani MRO 14514): 32 µg/mL
- MIC of Piperacillin in combination with 4 μg/mL inhibitor (E. coli MRO 10135): 16 µg/mL
- MIC of Piperacillin in combination with 4 μg/mL inhibitor (A. baumani MRO 14512): 4 µg/mL
- in vitro potentiation of Piperacillin (K. pneumoniae MRO 11008 [2]): 16 fold
- MIC of Piperacillin with different concentrations of Tazo or compound of Example 1 ([3]; inhibitor 2 μg/mL): 16 µg/mL
- MIC of Piperacillin with different concentrations of Tazo or compound of Example 1 ([3]; inhibitor 4 μg/mL): 16 µg/mL
- ED50 of Piperacillin in combination with inhibitor (E. coli MRO 10007): 24.88 mg/kg b.w.
- ED50 of Piperacillin in combination with inhibitor (K. pneumoniae MRO 11008 [4]; Swiss albino mice infected with K. pneumoniae MRO 11008, Piperacillin:inhibitor 4:1, 7-day survival): 34.89 mg/kg b.w.
- increase of efficacy of Piperacillin (K. pneumoniae MRO 11008 [4]; mice, ESBL producing K. pneumoniae strain resistant in vitro to Piperacillin with 1 μg/mL Tazo): three-fold
- ED50 of Piperacillin in combination with inhibitor (E. coli MRO 10006): 22.62 mg/kg b.w.
- ED50 of Piperacillin in combination, compared to that in combination with Tazo [5]: two-fold lower
- MIC of Piperacillin with different concentrations of Tazo or compound of Example 1 (E. coli BAA-201 (TEM-3); inhibitor 1 μg/mL): 4 µg/mL
- MIC of Piperacillin with different concentrations of Tazo or compound of Example 1 (E. coli BAA-201 (TEM-3); inhibitor 2 μg/mL): 2 µg/mL
- MIC of Piperacillin with different concentrations of Tazo or compound of Example 1 (E. coli BAA-201 (TEM-3); inhibitor 4 μg/mL): 2 µg/mL
- MIC of Piperacillin with different concentrations of Tazo or compound of Example 1 (E. coli BAA-200 (SHV-4); E. coli BAA-200, SHV-4, inhibitor 4 μg/mL): 2 µg/mL
- potentiation of Piperacillin compared to Tazo (E. coli BAA-200 (SHV-4); inhibitor 1 μg/mL): > 16 fold
- potentiation of Piperacillin compared to Tazo (E. coli BAA-200 (SHV-4); inhibitor 2 μg/mL): > 32 fold
- potentiation of Piperacillin compared to Tazo (E. coli BAA-199 (SHV-3); SHV-3 ESBL producing strain, inhibitor 1 μg/mL): > 16 fold
- potentiation of Piperacillin compared to Tazo (E. coli BAA-199 (SHV-3); SHV-3 ESBL producing strain, inhibitor 2 μg/mL): > 32 fold
- potentiation of Piperacillin compared to Tazo (in words) (E. coli BAA-199 (SHV-3); SHV-3 producing strain as printed (second mention), inhibitor 4 μg/mL): comparable with Tazo
- potentiation of Piperacillin compared to Tazo (E. coli BAA-199 (SHV-3); SHV-3 producing strain, inhibitor 4 μg/mL): > 64 fold
- MIC of Piperacillin with different concentrations of Tazo or compound of Example 1 ([6]; inhibitor 1 μg/mL): 16 µg/mL
- MIC of Piperacillin with different concentrations of Tazo or compound of Example 1 ([6]; inhibitor 2 μg/mL): 8 µg/mL
- MIC of Piperacillin with different concentrations of Tazo or compound of Example 1 ([6]; inhibitor 4 μg/mL): 8 µg/mL
- MIC of Piperacillin with different concentrations of Tazo or compound of Example 1 (E. coli BAA-202 (SHV-1); inhibitor 1 μg/mL): >128 µg/mL
- MIC of Piperacillin with different concentrations of Tazo or compound of Example 1 (E. coli BAA-202 (SHV-1); inhibitor 2 μg/mL): >128 µg/mL
- MIC of Piperacillin with different concentrations of Tazo or compound of Example 1 (E. coli BAA-202 (SHV-1); inhibitor 4 μg/mL): >128 µg/mL
- MIC of Piperacillin with different concentrations of Tazo or compound of Example 1 (E. coli BAA-196 (TEM-10)): 4 µg/mL
- MIC of Piperacillin with different concentrations of Tazo or compound of Example 1 [7]: 8 µg/mL
- MIC of Piperacillin with different concentrations of Tazo or compound of Example 1 (E. coli BAA-197 (TEM-12)): 4 µg/mL
- MIC of Piperacillin with different concentrations of Tazo or compound of Example 1 (E. coli BAA-198 (TEM-26); inhibitor 1 μg/mL): 4 µg/mL
- MIC of Piperacillin with different concentrations of Tazo or compound of Example 1 (E. coli BAA-198 (TEM-26); inhibitor 2 μg/mL): 4 µg/mL
- MIC of Piperacillin with different concentrations of Tazo or compound of Example 1 (E. coli BAA-198 (TEM-26); inhibitor 4 μg/mL): 2 µg/mL
- IC50 compared with Tazo (Penicillinase enzyme): three-fold lower
- potentiated the antibacterial activity of Piperacillin compared to that of Tazo ([8]; inhibitor 4 μg/mL, strains resistant to Ceftazidime and Ciprofloxacin): 2-16 fold
- susceptibility of resistant strains to Piperacillin in combination ([8]; strains resistant to Ceftazidime, Ciprofloxacin, and Piperacillin/Tazo combination): susceptible
- C0 ([9]; Swiss, mouse, in vivo, iv, 8 mg/kg): 15200 ng/mL
- AUC(0-t) ([9]; Swiss, mouse, in vivo, iv, 8 mg/kg, read-out: AUC0-4 h): 5370 ng·h/mL
- AUC ([9]; Swiss, mouse, in vivo, iv, 8 mg/kg, read-out: AUC0-∝): 5830 ng·h/mL
- half-life ([9]; Swiss, mouse, in vivo, iv, 8 mg/kg, read-out: Elimination half-life (converted)): 16.3 min
- systemic exposure ([9]; mice, intravenous, compared with Tazo): higher than that of Tazo
- potentiation of Piperacillin compared to Tazo [10]: 2-16 fold
- conversion to Tazo after intravenous administration (LC-MS/MS of plasma) [11]: did not get converted to Tazo
